Laboratory results from patent US20260373103A1, “COMPOSITIONS AND METHODS FOR PREVENTING CARDIOMYOPATHY” (OHIO STATE INNOVATION FOUNDATION, priority 2022, published 2026).
Entries after “also recorded” stand apart in the source; their conditions may differ.

Tested on: mt-Keima mice
Test: Echocardiographic analysis
Assay type: in vivo, mouse
Conditions: 25 mg/kg/day i.p. for 5 days, vs vehicle
Experimental: The mt-Keima mouse. ST-539 was dissolved into 1% DMSO in Sesame oil and injected intraperitoneally (i.p.) at doses of 25 mg/kg/day with five total doses. Both male and female mice were used in this study. The control group received vehicle only. Echocardiographic measurements were taken using a Vevo3100 Visual Sonics (Visual Sonics) system. The mice were lightly anesthetized with isoflurane and the ejection fraction, fractional shortening, and ventricular chamber dimensions were determined using 2-D-guided M mode images. Ejection fraction, fractional shortening, ventricular chamber dimensions, and left ventricular mass were calculated automatically using the VevoLAB program. All experiments involving animals were approved by the Institutional Animal Care and Use Committee at The Ohio State University.

CC(C)(C)NS(=O)(=O)c1cccc2c(NC(=O)C(Cc3ccccc3)NC(=O)c3ccccc3)cccc12 (stereo not drawn) [ST-539]
cardiac output: similar; also recorded: does not appear to impact cardiac output | ejection fraction (EF): similar; also recorded: minimal differences | left ventricular posterior wall thickness (LVPWs): similar; also recorded: does not appear to impact
